Measurements taken from patent US7094899B2, “Vitreous form of known bradykinin antagonist” (Astellas Pharma Inc., priority 1998, dated 2006).
One block for each molecule: values may come before it.

Tests used:
[1] = background art statement; cited from earlier work
[2] = Solubility test (JP XIII dissolution test, paddle method); format: physicochemical; conditions: 900 ml distilled water, paddle 50 rpm; compared with crystal types A, B, C and mixture A+C of FR173657 hydrate (FIG. 6)
Procedure: A solubility test was performed in conformity with the Japanese Pharmacopoeia(JP) XIII dissolution test, paddle method. As the test solution, 900 ml of distilled water was used. The paddle speed was set to 50 rpm. The vitreous form of FR173657 ([…]) was added to the test solution and 10 ml aliquots of the test solution were taken as samples in each measurement. Each sample was filtered through a 0.45 μm filter and analyzed by high-performance liquid chromatography.
As a control, crystal type A, crystal type B, crystal type C and a mixture of crystal types A and C of FR173657 hydrate were used.

[3] = Stability test of the vitreous form milled mechanically; format: physicochemical
[4] = 25° C. Relative humidity: 60%, 3 Months
[5] = 30° C. Relative humidity: 75%, 3 Months
[6] = 40° C. Relative humidity: 75%, 3 Months

Compound: CC(=O)Nc1ccc(/C=C/C(=O)NCC(=O)N(C)c2ccc(Cl)c(COc3cccc4ccc(C)nc34)c2Cl)cn1 [amorphous form, 8-[3-[N-[(E)-3-(6-acetamidopyridin-3-yl)acryloylglycyl]-N-methylamino]-2,6-dichlorobenzyloxy]-2-methylquinoline]
Solid stability [1]: poor

Solubility [2]: higher solubility
Appearance [3, 4]: Pale
Form DSC [3, 4]: Vitreous
Form Powder X-ray [3, 4]: Vitreous
Residual (%) [3, 4]: 102.1%
Appearance [3, 5]: Pale
Form DSC [3, 5]: Vitreous
Form Powder X-ray [3, 5]: Vitreous
Residual (%) [3, 5]: 102.1%
Appearance [3, 6]: Pale
Form DSC [3, 6]: Vitreous
Form Powder X-ray [3, 6]: Vitreous
Residual (%) [3, 6]: 101.2%
Appearance ([3]; 40° C., 3 Months): Pale
Form DSC ([3]; 40° C., 3 Months): Vitreous
Form Powder X-ray ([3]; 40° C., 3 Months): Vitreous
Residual (%) ([3]; 40° C., 3 Months): 100.8%
Appearance ([3]; 50° C., 3 Months): Pale
Form DSC ([3]; 50° C., 3 Months): Vitreous
Form Powder X-ray ([3]; 50° C., 3 Months): Vitreous
Residual (%) ([3]; 50° C., 3 Months): 101.0%
Appearance ([3]; Initial): Pale
Form DSC ([3]; Initial): Vitreous
Form Powder X-ray ([3]; Initial): Vitreous
Residual (%) ([3]; Initial): 100.0%
Compound: CC(=O)Nc1ccc(/C=C/C(=O)NCC(=O)N(C)c2ccc(Cl)c(COc3cccc4ccc(C)nc34)c2Cl)cn1 [vitreous form of FR173657, 8-[3-[N-[(E)-3-(6-acetamidopyridin-3-yl)acryloylglycyl]-N-methylamino]-2,6-dichlorobenzyloxy]-2-methylquinoline]
Stability (crystallization / decomposition) ([3]; under heat, in moisture, through physical treatment, long-term storage): neither crystallizes nor decomposes at all
